Data reported in patent US9556154B2, “Pyrrole-substituted indolone derivative, preparation method therefor, composition comprising same and use thereof” (SHIJIAZHUANG YILING PHARMACEUTICAL CO., LTD., priority 2014, dated 2017).
Entries after “also recorded” stand apart in the source; their conditions may differ. Where two headings read alike, the source gives them in different places.

Key:
[1] = tested on: HUVEC; test: Inhibitory activity on VEGF-induced in vitro proliferation of HUVEC (MTS); type: cell-based; conditions: Homo sapiens, 72 h, read-out: EC50, activity on VEGF-induced in vitro proliferation of HUVEC
Experimental: Assays for inhibitory activity on VEGF-induced proliferation of Human umbilical veins […] cell (HUVEC) line: HUVECs were cultured in F-12K containing 10% FBS, 18 u/mL heparin and 30 µg/mL ECGS, and HUVECs at 4-8 passages were selected for the experiment. The cells were digested with pancreatin, re-suspended in culture media (1×10^5/mL), and were added to a 96-well plate with 100 μL/well, for overnight adherent culturing. The culture was replaced with an F-12K culture solution containing 5% FBS and the cells were cultured for 24 h. […] A 0.1% FBS F-12K culture solution containing VEGF165 at a final concentration of 30 ng/ml or the vehicle (DMSO) was added and the cells were cultured under induction for 72 h. The culture solution was removed by pipetting, and 120 μL MTS assay solution was added to each well, which was incubated at 37° C. The OD490 was read. The group treated with a 5% FBS F-12K culture solution served as the negative control. VEGF-stimulated growth value was obtained by subtracting the OD of the negative control group from the OD of the VEGF165-stimulated group, and used for calculation of inhibition. A dose-effect curve was drawn using the GraphPad Prism software, and half effective concentration (EC50) was calculated.

[2] = Cytotoxicity to HUVEC (MTS); type: cell-based, Human; conditions: human, HUVEC cells; 72 h
Experimental: (§1) Assays for cytotoxicity: the above HUVECs were cultured in an F-12K culture medium containing 10% fetal bovine serum (FBS), 100 U/mL penicillin, 100 µg/mL streptomycin, 30 ug/mL ECGS, and 18 u/mL heparin. The HUVECs growing in the exponential phase were digested with pancreatin, and was adjust to have an appropriate level of cell density by using an F-12K complete medium containing 5% FBS, then 150 μL cells were inoculated into a 96-well plate at 3000 cells/well. […] After the cells were further cultured for 72 h, 20 μL MTS and 1 μL PMS were added to each well. 1-2 hours later, OD490 was measured, with OD650 as a reference. A dose-effect curve was drawn using the GraphPad Prism software, and half cytotoxic concentration (CC50) was calculated. The therapeutic index (TI) of the test compound on HUVECs was calculated as TI=CC50/EC50.

[3] = tested on: HUVEC; test: Cytotoxicity to HUVEC (MTS); type: cell-based, Human; conditions: for TI = CC50/EC50: HUVEC; for Cytotoxicity to HUVEC compared with sunitinib: in words
Experimental: as §1

[4] = target: KDR (VEGF receptor) tyrosine kinase (Homo sapiens, UniProt P35968); test: In vitro assay of biochemical activity on KDR tyrosine kinase (HTRF); conditions: read-out: In vitro inhibitory activity on KDR, IC50
Sequence of KDR (VEGF receptor) tyrosine kinase (P35968 20-1356): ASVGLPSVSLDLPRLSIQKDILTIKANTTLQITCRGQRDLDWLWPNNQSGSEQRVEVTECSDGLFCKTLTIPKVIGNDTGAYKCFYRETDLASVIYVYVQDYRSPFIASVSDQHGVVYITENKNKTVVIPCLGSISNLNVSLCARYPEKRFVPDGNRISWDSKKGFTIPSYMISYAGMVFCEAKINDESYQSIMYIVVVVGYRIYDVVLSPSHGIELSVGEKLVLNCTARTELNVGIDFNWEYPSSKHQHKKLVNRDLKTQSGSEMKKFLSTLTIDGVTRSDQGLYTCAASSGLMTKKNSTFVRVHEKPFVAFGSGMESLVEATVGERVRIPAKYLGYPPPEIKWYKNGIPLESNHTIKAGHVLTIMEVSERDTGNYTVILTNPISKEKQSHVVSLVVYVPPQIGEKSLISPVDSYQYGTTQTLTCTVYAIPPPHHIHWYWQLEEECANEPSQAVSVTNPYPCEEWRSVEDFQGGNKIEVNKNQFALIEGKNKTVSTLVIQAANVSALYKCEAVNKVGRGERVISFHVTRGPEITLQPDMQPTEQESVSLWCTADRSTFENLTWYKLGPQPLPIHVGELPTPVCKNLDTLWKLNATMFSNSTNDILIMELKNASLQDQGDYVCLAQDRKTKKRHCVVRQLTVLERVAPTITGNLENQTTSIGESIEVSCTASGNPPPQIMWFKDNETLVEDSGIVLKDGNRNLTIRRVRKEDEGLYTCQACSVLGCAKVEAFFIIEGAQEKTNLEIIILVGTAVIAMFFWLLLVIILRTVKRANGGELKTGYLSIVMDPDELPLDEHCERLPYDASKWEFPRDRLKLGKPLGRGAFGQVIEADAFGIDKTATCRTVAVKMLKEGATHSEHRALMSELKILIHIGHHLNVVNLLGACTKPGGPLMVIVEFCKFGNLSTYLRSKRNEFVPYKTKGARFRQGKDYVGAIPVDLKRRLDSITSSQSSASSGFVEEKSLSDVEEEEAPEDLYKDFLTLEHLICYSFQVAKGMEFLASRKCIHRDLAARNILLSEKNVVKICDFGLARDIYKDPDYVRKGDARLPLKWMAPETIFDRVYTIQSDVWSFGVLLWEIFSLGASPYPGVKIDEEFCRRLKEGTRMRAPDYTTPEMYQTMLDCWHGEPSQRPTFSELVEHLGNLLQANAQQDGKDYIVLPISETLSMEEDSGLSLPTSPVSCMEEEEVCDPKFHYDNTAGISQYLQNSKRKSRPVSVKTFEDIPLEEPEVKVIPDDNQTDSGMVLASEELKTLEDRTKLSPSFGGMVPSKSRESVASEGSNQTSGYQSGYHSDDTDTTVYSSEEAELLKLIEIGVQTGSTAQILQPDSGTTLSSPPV
Experimental: In vitro inhibitory activity of the compounds on KDR (VEGF receptor) tyrosine kinase was assayed by the HTRF (homogeneous time-resolved fluorescence) method. […] 10 μl SA-XL665 and a TK antibody were added to each well, which was incubated at room temperature for 1 h and read with Synergy2.

[5] = tested on: MV-4-11 cell line; test: Inhibitory activity on proliferation of human-derived MV-4-11 tumor cell line (MTS); type: cell-based; conditions: for IC50: Homo sapiens, MV4-11, 72 h, read-out: IC50, in vitro proliferation of MV-4-11 cell line; for Maximum inhibition: MV-4-11, 72 h
From the text: Human-derived acute leukemia cell line MV-4-11 is a cell line having mutation(s) in Flt-3.

[6] = tested on: MV-4-11 transplanted tumor; test: In vivo inhibition on MV-4-11 transplanted tumor in nude mice; set-up: species or system Balb/c nude mice; conditions: for BW (body weight) D0 / TV (tumor volume) D0: D0, 80 mg/kg intragastric once per day; for BW (body weight) D0 / BW (body weight) D21: in g (unit assumed); for TV (tumor volume) D0 / TV (tumor volume) D21: in mm³; for BW (body weight) D21 / TV (tumor volume) D21: D21, 80 mg/kg intragastric once per day
Experimental: MV-4-11 cells were cultured to proliferate in vitro, and the cells growing in the exponential phase were harvested and re-suspended in a serum-free EMEM culture medium. The cell suspension was subcutaneously injected by a syringe into the axillary cavity of the right forelimb of male Balb/c nude mice. The animals and growth of transplanted tumors were observed regularly. […] During the administration period, the diameter of tumors and body weight (BW) of animals were measured, and the living status of animals was monitored. The experiment was finished 3 weeks after administration, and the animals were sacrificed with CO2 and subjected to autopsy.

[7] = day 21, 80 mg/kg intragastric, in words

Row | Structure (SMILES) | EC50 ([1]; VEGF165 30 ng/ml) [µM] | CC50 at 72 h [2] [µM] | TI = CC50/EC50 [3] | IC50 [4] [µM] | Cytotoxicity to HUVEC compared with sunitinib [3] | IC50 [5] [µM] | Maximum inhibition [5] [%] | BW (body weight) D0 [6] | TV (tumor volume) D0 [6] | BW (body weight) D21 [6] | TV (tumor volume) D21 [6] | Effect on tumors [6, 7] | Impact on body weight of animals [6, 7] | EC50 [1] [µM] | Impact on body weight of animals ([6]; day 21, 80 mg/kg intragastric, in words, listed as sunitinib)
1 | Cc1[nH]c(/C=C2\C(=O)Nc3ccc(F)cc32)c(C)c1NC(=O)N1CCCC1 [Comparative compound 2, reference compound] | 0.0123 | 6.98 | 567 | – | – | – | – | – | – | – | – | – | – | – | –
2 | Cc1[nH]c(/C=C2\C(=O)Nc3ccc(F)cc32)c(C)c1NC(=O)[C@H]1CCCN1 [Compound 6] | 0.0134 | 17.6 | 1316 | 0.083 | considerably lower than that of sunitinib | 0.0116 | 92.4 | 20.42 ± 0.20 | 238.25 ± 13.18 | 21.38 ± 0.37 | 0.00 ± 0.00 | completely disappeared; also recorded: complete disappearance of tumors | no significant impact on the body weight; also recorded: little impact on the body weight | – | –
3 | Cc1[nH]c(/C=C2\C(=O)Nc3ccc(F)cc32)c(C)c1NC(=O)[C@@H]1CCCN1 [Compound 15] | 0.0142 | 17.7 | 1247 | 0.065 | considerably lower than that of sunitinib | 0.0123 | 92.5 | – | – | – | – | – | – | – | –
4 | Cc1[nH]c(/C=C2\C(=O)Nc3ccc(F)cc32)c(C)c1NC(=O)C1CCCN(C(=O)N2CCCC2)C1 (stereo not shown) [Compound 14] | 0.013 | > 20 | >1534 | 0.143 | considerably lower than that of sunitinib | – | – | – | – | – | – | – | – | – | –
5 | Cc1[nH]c(/C=C2\C(=O)Nc3ccc(F)cc32)c(C)c1NC(=O)N1CCCCC1 [Comparative compound 1, reference compound] | 0.0132 | 5.69 | 430 | – | – | – | – | – | – | – | – | – | – | – | –
6 | Cc1[nH]c(/C=C2\C(=O)Nc3ccc(F)cc32)c(C)c1NC(=O)CC1CCNCC1 [Comparative compound 3, reference compound] | 0.0146 | 8.05 | 550 | – | – | – | – | – | – | – | – | – | – | – | –
7 | CCN(CC)CCNC(=O)c1c(C)[nH]c(/C=C2\C(=O)Nc3ccc(F)cc32)c1C [Sunitinib, reference compound] | – | 4.14 | – | – | – | 0.00394 | 94.4 | 19.47 ± 0.33 | 242.75 ± 20.58 | 16.02 ± 0.56 | 12.97 ± 2.47 | – | significantly reduces the body weight | 0.00773 | significantly reduced
8 | Cc1[nH]c(/C=C2\C(=O)Nc3ccc(F)cc32)c(C)c1NC(=O)C1CCCCN1 (stereo not shown) [Compound 9] | – | – | – | 0.089 | – | 0.00534 | 94.3 | – | – | – | – | – | – | – | –
9 | Cc1[nH]c(/C=C2\C(=O)Nc3ccc(F)cc32)c(C)c1NC(=O)C1CCN(C(=O)N2CCCC2)CC1 [Compound 11] | 0.0139 | > 20 | >1436 | 0.074 | considerably lower than that of sunitinib | – | – | – | – | – | – | – | – | – | –
10 | Cc1[nH]c(/C=C2\C(=O)Nc3ccc(F)cc32)c(C)c1NC(=O)C1CCCN(C(=O)N(C)C)C1 (stereo not shown) [Compound 13] | – | – | – | 0.077 | considerably lower than that of sunitinib | 0.00641 | 90.2 | – | – | – | – | – | – | – | –
11 | Cc1[nH]c(/C=C2\C(=O)Nc3ccc(F)cc32)c(C)c1NC(=O)C1CCN(C)CC1 [Compound 5] | 0.0184 | > 20 | >1085 | 0.141 | considerably lower than that of sunitinib | 0.00168 | 95.0 | – | – | – | – | – | – | – | –
12 | Cc1[nH]c(/C=C2\C(=O)Nc3ccc(F)cc32)c(C)c1NC(=O)C1CCNCC1 [Compound 2] | 0.0161 | > 20 | >1238 | 0.29 | considerably lower than that of sunitinib | 0.0047 | 92.6 | – | – | – | – | – | – | – | –
13 | Cc1[nH]c(/C=C2\C(=O)Nc3ccc(F)cc32)c(C)c1NC(=O)C1CCCNC1 (stereo not shown) [Compound 12] | – | – | – | 0.142 | – | 0.00787 | 93.1 | – | – | – | – | – | – | – | –
14 | Cc1[nH]c(/C=C2\C(=O)Nc3ccc(F)cc32)c(C)c1NC(=O)C1CCN(C(=O)N(C)C)CC1 [Compound 3] | 0.0137 | > 20 | >1456 | 0.078 | considerably lower than that of sunitinib | 0.0107 | 92.1 | – | – | – | – | – | – | – | –
15 | Cc1[nH]c(/C=C2\C(=O)Nc3ccc(F)cc32)c(C)c1NC(=O)[C@H]1CCCN1C(=O)N(C)C [Compound 8] | 0.0114 | > 20 | >1762 | 0.066 | considerably lower than that of sunitinib | – | – | – | – | – | – | – | – | – | –
